Patent publication US10005773B2, “1-(4-pyrimidinyl)-1H-pyrrolo[3,2-c]pyridine derivatives as NIK inhibitors” (Janssen Pharmaceutica NV, priority 2013, dated 2018)

How the values were obtained:
[1] = target: T1, Recombinant Human NF-kappaB-Inducing Kinase (NIK/MAP3K14) (Homo sapiens, UniProt Q99558); experiment: Biological Assay A: inhibition of recombinant human NIK/MAP3K14 activity (MSD, MBP substrate); conditions: 25 μM ATP, 10 nM NIK/MAP3K14, 1 h at 25° C.; averaged over all batches; read-out: Biochemical (MSD MBP) IC50
Description: Inhibition of Recombinant Human NF-kappaB-Inducing Kinase (NIKIMAP3K14) Activity
Assay buffer was 50 mM Tris pH 7.5 containing 1 mM ethylene glycol tetraacetic acid (EGTA), 1 mM dithiothreitol (DTT), 0.1 mM Na3VO4, 5 mM MgCl2, 0.01% Tween® 20. Assays were carried out in 384 well Mesoscale high binding plates which had been coated with myelin basic protein (MBP) and blocked with bovine serum albumin to prevent non-specific protein binding. All compounds tested were dissolved in dimethyl sulfoxide (DMSO) and further dilutions were made in assay buffer. Final DMSO concentration was 1% (v/v) in assays. Incubations consisted of compound (1% DMSO in control and blank wells), 25 μM Adenosine-5′-triphosphate (ATP), and 10 nM NIK/MAP3K14 substituting enzyme with buffer in the blank wells. Incubations were carried out for 1 h at 25° C. and were followed by washing and sequential incubation with rabbit anti-phospho-MBP and anti-rabbit Ig Sulfotag antibody before reading bound Sulfotag on a Mesoscale Discovery. Signal obtained in the wells containing blank samples was subtracted from all other wells and IC50's were determined by fitting a sigmoidal curve to % inhibition of control versus Log10 compound concentration.

[2] = target: T1, Recombinant Human NF-kappaB-Inducing Kinase (NIK/MAP3K14); experiment: Biological Assay A2: inhibition of auto-phosphorylation of recombinant human NIK/MAP3K14 (AlphaScreen); type: biochemical; conditions: 25 microM ATP, 0.2 nM NIK/MAP3K14, 1 h at 25° C., averaged over all batches, read-out: Alpha-Screen IC50
Description: Inhibition of Auto-Phosphorylation of Recombinant Human NF-kappaB-Inducing Kinase (NIKIMAP3K14) Activity (AlphaScreen®)
NIK/MAP3K14 auto-phosphorylation activity was measured using the AlphaScreen® (ascreen) format (Perkin Elmer). All compounds tested were dissolved in dimethyl sulfoxide (DMSO) and further dilutions were made in assay buffer. Final DMSO concentration was 1% (v/v) in assays. Assay buffer was 50 mM Tris pH 7.5 containing 1 mM EGTA (ethylene glycol tetraacetic acid), 1 mM DTT (dithiothreitol), 0.1 mM Na3VO4, 5 mM MgCl2, 0.01% Tween® 20. Assays were carried out in 384 well Alphaplates (Perkin Elmer). Incubations consisted of compound, 25 microM Adenosine-5′-triphosphate (ATP), and 0.2 nM NIK/MAP3K14. Incubations were initiated by addition of GST-tagged NIK/MAP3K14 enzyme, carried out for 1 h at 25° C. and terminated by addition of stop buffer containing anti-phospho-IKK Ser176/180 antibody. Protein A Acceptor and Glutathione-Donor beads were added before reading using an EnVision® Multilabel Plate Reader (Perkin Elmer). Signal obtained in the wells containing blank samples was subtracted from all other wells and IC50's were determined by fitting a sigmoidal curve to % inhibition of control versus Log10 compound concentration.

LP-1 cells = experiment: Biological Assay C: antiproliferative activity on LP-1 cells (CellTiter-Glo); type: cell-based; conditions: Homo sapiens, 72 hr treatment
Description: (§1) Determination of Antiproliferative Activity on LP-1, L-363 and JJN-3 Cells
(§2) All compounds tested were dissolved in DMSO and further dilutions were made in culture medium. Final DMSO concentration was 0.3% (v/v) in cell proliferation assays. Viability was assessed using CellTiter-Glo cell viability assay kit (Promega). The human LP-1, L-363 and JJN-3 cells (DSMZ) were cultured in RPMI 1640 medium supplemented with 2 mM L-glutamine, and 10% fetal calf serum (PAA). Cells were routinely kept as suspension cells at 37° C. in a humidified 5% CO2 atmosphere. Cells were passaged at a seeding density of 0.2×10^6/ml twice a week. Cells were seeded in black tissue culture treated 96-well plates (Perkin Elmer). Densities used for plating ranged from 2,000 to 6,000 cells per well in a total volume of 75 μl medium. After twenty four hours, drugs and/or solvents were added (25 μl) to a final volume of 100 μl. Following 72 hr of treatment plates were removed from the incubator and allowed to equilibrate to room temperature for approx 10 min. 100 μl CellTiter-Glo reagent was added to each well that was then covered (Perkin Elmer Topseal) and shaken on plate shaker for 10 min. Luminescence was measured on a HTS Topcount (Perkin Elmer). Within an experiment, the results for each treatment were the mean of 2 replicate wells. For initial screening purposes, compounds were tested using a 9 point dilution curve (serial 1:3 dilutions). For each experiment, controls (containing no drug) and a blank incubation (containing cells read at the time of compound addition) were run in parallel. The blank value was subtracted from all control and sample values. For each sample, the mean value for cell growth (in relative light units) was expressed as a percentage of the mean value for cell growth of the control.

JJN-3 cells = experiment: Biological Assay C: antiproliferative activity on JJN-3 cells (CellTiter-Glo); type: cell-based; conditions: Homo sapiens, 72 hr treatment
Description: as §1, §2

[3] = tested on: P-IKKα levels in L363 cells; experiment: Biological Assay B: effect of compounds on P-IKKα levels in L363 cells; type: cell-based; conditions: Homo sapiens, L-363, BAFF stimulated, 2 hr treatment, averaged over all batches, read-out: IKKα Cellular IC50
Description: Effect of Compounds on P-IKKα Levels in L363 Cells
All compounds tested were dissolved in DMSO and further dilutions were made in culture medium. Final DMSO concentration was 1% (v/v) in cell assays. The human L363 cells (ATCC) were cultured in RPMI 1640 medium supplemented with GlutaMax and 10% fetal calf serum (PAA). Cells were routinely maintained at densities of 0.2×10^6 cells per ml-1×10^6 cells per ml at 37° C. in a humidified 5% CO2 atmosphere. Cells were passaged twice a week splitting back to obtain the low density. Cells were seeded in 96 well plates (Nunc 167008) at 2×10^6 per ml media in a volume of 75 μl per well plus 25 μl 1 μg/ml recombinant human B-cell activating factor (BAFF/BLyS/TNFSF13B). Seeded cells were incubated at 37° C. in a humidified 5% CO2 atmosphere for 24 hr. Drugs and/or solvents were added (20 μl) to a final volume of 120 μl. Following 2 hr treatment plates were removed from the incubator and cell lysis was achieved by the addition of 30 μl 5× lysis buffer followed by shaking on a plate shaker at 4° C. for 10 min. At the end of this incubation lysed cells were centrifuged at 800×g for 20 min at 4° C. and the lysate was assessed for P-IKKα levels by sandwich immuno-assay carried out in anti-rabbit antibody coated Mesoscale plates. Within an experiment, the results for each treatment were the mean of 2 replicate wells. For initial screening purposes, compounds were tested using an 8 point dilution curve (serial 1:3 dilutions). For each experiment, controls (containing MG132 and BAFF but no test drug) and a blank incubation (containing MG132 and BAFF and 10 μM ADS125117, a test concentration known to give full inhibition) were run in parallel. The blank incubation value was subtracted from all control and sample values. To determine the IC50 a sigmoidal curve was fitted to the plot of % inhibition of control P-IKKα levels versus Log10 compound concentration.

L-363 cells = experiment: Biological Assay C: antiproliferative activity on L-363 cells (CellTiter-Glo); type: cell-based; conditions: Homo sapiens, 72 hr treatment
Description: as §1, §2

T1 sequence (Q99558 whole entry): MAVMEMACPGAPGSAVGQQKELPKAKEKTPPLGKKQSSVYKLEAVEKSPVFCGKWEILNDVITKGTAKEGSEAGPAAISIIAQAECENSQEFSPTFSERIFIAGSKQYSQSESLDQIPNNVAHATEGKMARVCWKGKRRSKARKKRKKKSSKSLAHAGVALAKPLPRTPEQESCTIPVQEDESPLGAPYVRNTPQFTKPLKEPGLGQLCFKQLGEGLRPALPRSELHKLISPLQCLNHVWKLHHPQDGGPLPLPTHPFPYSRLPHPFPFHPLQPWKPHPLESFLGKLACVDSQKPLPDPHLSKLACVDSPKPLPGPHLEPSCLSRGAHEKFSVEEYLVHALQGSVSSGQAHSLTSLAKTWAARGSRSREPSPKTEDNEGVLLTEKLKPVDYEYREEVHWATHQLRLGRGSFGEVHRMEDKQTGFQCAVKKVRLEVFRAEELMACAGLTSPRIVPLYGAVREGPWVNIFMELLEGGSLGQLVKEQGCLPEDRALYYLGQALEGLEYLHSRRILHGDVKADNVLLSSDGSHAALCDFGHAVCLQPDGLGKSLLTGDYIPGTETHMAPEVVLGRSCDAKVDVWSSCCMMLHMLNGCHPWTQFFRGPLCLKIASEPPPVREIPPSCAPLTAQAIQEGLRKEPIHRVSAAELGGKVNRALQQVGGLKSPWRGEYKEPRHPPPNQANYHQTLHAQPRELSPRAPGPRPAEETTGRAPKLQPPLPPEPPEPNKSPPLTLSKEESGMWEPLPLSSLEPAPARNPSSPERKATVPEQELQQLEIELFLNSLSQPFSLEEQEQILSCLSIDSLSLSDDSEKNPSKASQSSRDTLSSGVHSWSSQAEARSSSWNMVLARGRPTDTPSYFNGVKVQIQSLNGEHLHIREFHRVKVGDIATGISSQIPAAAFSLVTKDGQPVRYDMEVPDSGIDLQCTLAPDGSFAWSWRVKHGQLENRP

| Structure (SMILES) | IC50 [1] [nM] | IC50 [2] [nM] | EC50 (LP-1 cells) [nM] | EC50 (JJN-3 cells) [nM] | IC50 [3] [nM] | EC50 (L-363 cells) [nM] |
| --- | --- | --- | --- | --- | --- | --- |
| CC(C)(O)C#Cc1cc2c(cn1)c(C#N)cn2-c1ccnc(N)n1 [Compound 19] | 98 | 54 | 4660 | 1450 | 781 | 1840 |
| CN1CCC(c2cn(-c3ccnc(N)n3)c3cc(C#CC(C)(C)O)ncc23)CC1 [Compound 23] | 33 | 35 | 1920 | 116 | 87 | 92 |
| COCCc1cn(-c2ccnc(N)n2)c2cc(C#CC(C)(C)O)ncc12 [Compound 27] | 31 | 33 | 448 | 145 | 48 | 194 |
| CC(C)(O)C#Cc1cc2c(cn1)c(CCO)cn2-c1ccnc(N)n1 [Compound 26] | 3.8 | 11 | 6940 | 182 | 41 | 823 |
| CC(CO)c1cn(-c2ccnc(N)n2)c2cc(C#CC(C)(C)O)ncc12 (stereo not drawn) [Compound 16] | 20 | 6.7 | 6120 | 157 | 56 | 354 |
| CC(C)(O)C#Cc1cc2c(ccn2-c2nc(N)ncc2F)cn1 [Compound 12] | 77 | 13 | 282 | 132 | 25 | 133 |
| CC(C)(O)C#Cc1cc2c(cn1)c(/C=C/C#N)cn2-c1ccnc(N)n1 [Compound 35] | 89 | 49 | 2060 | 420 | 161 | 959 |
| CC(C)(O)C#Cc1cc2c(cn1)c(CCC#N)cn2-c1ccnc(N)n1 [Compound 36] | 25 | 12 | 4540 | 199 | 18 | 360 |
| CC(C)(O)CCc1cn(-c2ccnc(N)n2)c2cc(C#CC3(O)CCCC3)ncc12 [Compound 32] | 22 | 12 | 6890 | 473 | 154 | 1800 |
| Nc1ncc(Cl)c(-n2ccc3cnc(C#CC4(O)CC4)cc32)n1 [Compound 8] | 12 | 24 | 2330 | 1590 | 104 | 1560 |
| CC(C)(O)C#Cc1cc2c(cn1)c(CCCO)cn2-c1nc(N)ncc1F [Compound 29] | 19 | 24 | 3480 | 298 | 32 | 277 |
| CCc1cn(-c2ccnc(N)n2)c2cc(C#CC(C)(C)O)ncc12 [Compound 21] | 11 | 15 | 70 | 41 | 9.5 | 44 |
| Nc1nccc(-n2ccc3cnc(C#CC4(O)CC4)cc32)n1 [Compound 4] | 3.9 | 5.6 | 122 | 56 | 7.3 | 62 |
| CC(C)(O)C#Cc1cc2c(cn1)c(CCCO)cn2-c1ccnc(N)n1 [Compound 28] | 3.9 | 5.5 | 4440 | 162 | 28 | 215 |
| CN(C)C(=O)c1cn(-c2ccnc(N)n2)c2cc(C#CC(C)(C)O)ncc12 [Compound 2] | 73 | 180 | > 30000 | 3320 | 1060 | 5030 |
| CC(C)(O)C#Cc1cc2c(cn1)c(CCC(C)(C)O)cn2-c1ccnc(N)n1 [Compound 31] | 13 | 14 | 7070 | 358 | 80 | 972 |
| CC(O)(C#Cc1cc2c(ccn2-c2ccnc(N)n2)cn1)c1nccs1 (stereo not drawn) [Compound 5] | 2.4 | 10 | 3310 | 237 | 18 | 2920 |
| CC(C)(O)CCc1cn(-c2nc(N)ncc2F)c2cc(C#CC3(O)CCCC3)ncc12 [Compound 34] | 11 | 13 | 3390 | 1710 | 199 | 2240 |
| COCc1cn(-c2ccnc(N)n2)c2cc(C#CC(C)(C)O)ncc12 [Compound 18] | 22 | 20 | 1330 | 313 | 56 | 247 |
| CNc1nccc(-n2ccc3cnc(C#CC(C)(C)O)cc32)n1 [Compound 6] | 55 | 80 | 929 | 744 | 204 | 774 |
| CN1CCC(c2cn(-c3nc(N)ncc3F)c3cc(C#CC(C)(C)O)ncc23)CC1 [Compound 25] | 103 | 95 | 1040 | 130 | 75 | 105 |
| CC(C)(O)C#Cc1cc2c(cn1)c(CC#N)cn2-c1ccnc(N)n1 [Compound 20] | 13 | 26 | 1280 | 190 | 55 | 319 |
| Nc1ncc(Cl)c(-n2ccc3cnc(C#CC4(O)CCCC4)cc32)n1 [Compound 9] | 2.8 | 11 | 37200 | 1830 | 101 | 15400 |
